This is an account of results in ChEMBL document CHEMBL3044829, “New carbodithioate derivatives: synthesis, characterization, and in vitro antibacterial, antifungal, antitubercular, and antimalarial activity” (Med Chem Res, 2013).

For series [1], the system named is Mycobacterium tuberculosis. In words: Antitubercular activity against Mycobacterium tuberculosis H37Rv MTCC 200 assessed as growth inhibition at 6.25 ug/ml by BACTEC MGIT method. It is filed as functional.
Series [2] has as its system Mycobacterium tuberculosis. In words: Antitubercular activity against Mycobacterium tuberculosis H37Rv MTCC 200 assessed as growth inhibition by BACTEC MGIT method. It is filed as functional.
The subject of a further series is Aspergillus clavatus. In words: Antimicrobial activity against Aspergillus clavatus MTCC 1323 assessed as growth inhibition by broth microdilution method. It is filed as functional.
A further series deals with Aspergillus niger. Put plainly: Antimicrobial activity against Aspergillus niger MTCC 282 assessed as growth inhibition by broth microdilution method. It is filed as functional. (In broth dilution the organism is exposed to a series of concentrations in liquid medium.)
In the next series the test system is Candida albicans. Put plainly: Antimicrobial activity against Candida albicans MTCC 227 assessed as growth inhibition by broth microdilution method. It is filed as functional.
Another series concerns Bacillus subtilis. Put plainly: Antimicrobial activity against Bacillus subtilis MTCC 441 assessed as growth inhibition by broth microdilution method. It is filed as functional.
Another series deals with Streptococcus pyogenes. Put plainly: Antimicrobial activity against Streptococcus pyogenes MTCC 442 assessed as growth inhibition by broth microdilution method. It is filed as functional.
The next series deals with Staphylococcus aureus. In words: Antimicrobial activity against Staphylococcus aureus MTCC 96 assessed as growth inhibition by broth microdilution method. It is filed as functional.
A further series deals with Klebsiella pneumoniae. In words: Antimicrobial activity against Klebsiella pneumoniae MTCC 109 assessed as growth inhibition by broth microdilution method. It is filed as functional.
For the next series, the system named is Pseudomonas aeruginosa. Put plainly: Antimicrobial activity against Pseudomonas aeruginosa MTCC 1688 assessed as growth inhibition by broth microdilution method. It is filed as functional.
The test system of another series is Escherichia coli. In words: Antimicrobial activity against Escherichia coli MTCC 443 assessed as growth inhibition by broth microdilution method. It is filed as functional.
Another series deals with Plasmodium falciparum. In words: Antimalarial activity against chloroquine-sensitive Plasmodium falciparum 3D7 assessed as inhibition of complete maturation into schizonts after 40 hr. It is filed as functional. As to conditions: 3D7, 40 h.
Another series deals with Vero. Put plainly: Cytotoxicity against Chlorocebus aethiops (African green monkey) Vero cells assessed as inhibition of cell viability at equal to and greater than MIC for Mycobacterium tuberculosis H37Rv after 72 hr by MTT assay. The settings on record: chlorocebus sabaeus. It is filed as cell-based.
Series [3] has as its system Mycobacterium tuberculosis. In words: Antitubercular activity against Mycobacterium tuberculosis H37Rv MTCC 200 assessed as growth inhibition at MIC by L.J. MIC method. It is filed as functional.
In series [4] the test system is Mycobacterium tuberculosis. In words: Antitubercular activity against Mycobacterium tuberculosis H37Rv MTCC 200 assessed as growth inhibition by L.J. MIC method. It is filed as functional.

In brackets after ≈: the same amount, converted by molar mass.

Turning to `O=C1C(=O)N(CCCSC(=S)N2CCN(c3ccc(Cl)c(Cl)c3)CC2)c2ccc(Cl)cc21`, the inhibition (in general, the change of the read-out against control, counted positive when it falls) at 6.25 µg/mL in series [1] turned out to be 91%. Besides, the MIC (usually the lowest concentration found to suppress growth) in [2] was above 6.25 µg/mL; with Plasmodium falciparum it was 0.2 µg/mL (≈ 0.378 µM); in series [4], 250 µg/mL (≈ 473 µM). Besides, the MIC99 – broadly, the lowest concentration that inhibits either 99% of growth or 99% of the strains tested, depending on the study – with Aspergillus clavatus is above 1000 µg/mL; with Aspergillus niger, above 1000 µg/mL; in the series on Candida albicans, 500 µg/mL; in the series on Bacillus subtilis, 500 µg/mL; in the series on Streptococcus pyogenes, 500 µg/mL; with Staphylococcus aureus, 500 µg/mL. Moreover, the MIC99 was 500 µg/mL with Klebsiella pneumoniae, 250 µg/mL in the series with Pseudomonas aeruginosa and 200 µg/mL in the series with Escherichia coli. In the series with Vero, the Activity entry was “Non-toxic”. Besides, the “inhibition (Growth inhibition)” value in series [3] is 92%.

As for `NC(=O)c1cnccn1` [PYRAZINAMIDE], the inhibition at 6.25 µg/mL in series [1] worked out at 99%. Further, the MIC in series [2] came out at 6.25 µg/mL (≈ 50.8 µM).

With `CO[C@H]1/C=C/O[C@@]2(C)Oc3c(C)c(O)c4c(O)c(c(/C=N/N5CCN(C)CC5)c(O)c4c3C2=O)NC(=O)/C(C)=C\C=C\[C@H](C)[C@H](O)[C@@H](C)[C@@H](O)[C@@H](C)[C@H](OC(C)=O)[C@@H]1C` [RIFAMPIN], the inhibition at 6.25 µg/mL in [1] came out at 99%. Moreover, in series [2], the MIC worked out at 0.25 µg/mL (≈ 0.304 µM).

As to `O=C1C(=O)N(CCSC(=S)N2CCN(c3ccc(Cl)c(Cl)c3)CC2)c2ccccc21`, in series [1], the inhibition at 6.25 µg/mL is 92%. For the same compound, the MIC in series [2] was above 6.25 µg/mL; in the series with Plasmodium falciparum, 0.25 µg/mL (≈ 0.52 µM); in series [4], 250 µg/mL (≈ 520 µM). Moreover, the MIC99 was 500 µg/mL in the series with Aspergillus clavatus; 500 µg/mL with Aspergillus niger; above 1000 µg/mL in the series with Candida albicans; 200 µg/mL in the series with Bacillus subtilis; 100 µg/mL in the series with Streptococcus pyogenes; 250 µg/mL in the series on Staphylococcus aureus. The MIC99 turned out to be 500 µg/mL in the series on Klebsiella pneumoniae, 100 µg/mL in the series on Pseudomonas aeruginosa and 500 µg/mL in the series with Escherichia coli. In addition, the Activity entry in the series with Vero is given as “Non-toxic”. Moreover, the “inhibition (Growth inhibition)” value in [3] worked out at 87%.

Turning to `CCN(CC)CCCC(C)Nc1ccnc2cc(Cl)ccc12` (configuration not stated) [CHLOROQUINE], in the series on Plasmodium falciparum, the MIC was found to be 0.125 µg/mL (≈ 0.391 µM).

For the compound `CC[C@@H](CO)NCCN[C@@H](CC)CO` [ETHAMBUTOL], the inhibition at 6.25 µg/mL in [1] came out at 99%. Besides, the MIC in series [2] came out at 3.12 µg/mL (≈ 15.3 µM).

Regarding `CC1(C)S[C@@H]2[C@H](NC(=O)[C@H](N)c3ccccc3)C(=O)N2[C@H]1C(=O)O` [AMPICILLIN], the MIC99 with Bacillus subtilis was 100 µg/mL; in the series on Streptococcus pyogenes it was 100 µg/mL; with Staphylococcus aureus, 250 µg/mL; in the series on Klebsiella pneumoniae, 100 µg/mL; with Pseudomonas aeruginosa it was 100 µg/mL; in the series with Escherichia coli, 100 µg/mL.

Take NYSTATIN: the MIC99 in the series on Aspergillus clavatus, with Aspergillus niger and in the series on Candida albicans was 100 µg/mL in each case.

In the case of `O=C(O)c1cn(C2CC2)c2cc(N3CCNCC3)c(F)cc2c1=O` [CIPROFLOXACIN], the MIC99 in the series with Bacillus subtilis was at most 50 µg/mL; with Streptococcus pyogenes it was at most 50 µg/mL; with Staphylococcus aureus it was at most 25 µg/mL; with Klebsiella pneumoniae, at most 25 µg/mL; in the series on Pseudomonas aeruginosa, at most 25 µg/mL; in the series with Escherichia coli it was at most 25 µg/mL.

Consider `COC1=CC(=O)C[C@@H](C)[C@]12Oc1c(Cl)c(OC)cc(OC)c1C2=O` [GRISEOFULVIN], for which the results for the MIC99 in the series with Aspergillus clavatus, with Aspergillus niger and with Candida albicans were 100 µg/mL, 100 µg/mL and 500 µg/mL, respectively.

With `CCn1cc(C(=O)O)c(=O)c2cc(F)c(N3CCNCC3)cc21` [NORFLOXACIN], the MIC99 in the series with Bacillus subtilis, with Streptococcus pyogenes, in the series with Staphylococcus aureus, with Klebsiella pneumoniae, with Pseudomonas aeruginosa and with Escherichia coli was at most 10 µg/mL throughout.

Consider `NNC(=O)c1ccncc1` [ISONIAZID], for which the MIC in [2] came to 0.2 µg/mL (≈ 1.46 µM).
